Measured values published in PubChem BioAssay AID2060906 (Molecular Pharmacology Branch, DTP, NCI, 2025).
pIC50: −log10 of the molar value. Blank lines part the entries; values can stand above or below the compound they belong to.

Tested on: 485176-168-R4-J1-PDC complex spheroid growth
Experiment: Anticancer human tumor 485176-168-R4-J1-PDC patient-derived pancreatic adenocarcinoma cell line growth inhibition [RAS]
Conditions: for pIC50: curve of first compound; for viability, T/C: stronger effect = lower value
Method in brief: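 Tumour cells grown as complex spheroids with HUVEC endothelial cells and mesenchymal stem cells, treated with RAS pathway inhibitor combinations. Each agent spans half-log steps from near clinical Cmax, or 10 microM where Cmax is unknown.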

[1] = second compound 0.000949 µM, first compound 0.0316 µM
[2] = second compound 0.000949 µM, first compound 0.1 µM
[3] = second compound 0.000949 µM, first compound 0.316 µM
[4] = second compound 0.000949 µM, first compound 1 µM
[5] = second compound 0.000949 µM, first compound 3.16 µM
[6] = second compound 0.000949 µM, first compound 10 µM
[7] = second compound 0.003 µM, first compound 0.0316 µM
[8] = second compound 0.003 µM, first compound 0.1 µM
[9] = second compound 0.003 µM, first compound 0.316 µM
[10] = second compound 0.003 µM, first compound 1 µM
[11] = second compound 0.003 µM, first compound 3.16 µM
[12] = second compound 0.003 µM, first compound 10 µM
[13] = second compound 0.00949 µM, first compound 0.0316 µM
[14] = second compound 0.00949 µM, first compound 0.1 µM
[15] = second compound 0.00949 µM, first compound 0.316 µM
[16] = second compound 0.00949 µM, first compound 1 µM
[17] = second compound 0.00949 µM, first compound 3.16 µM
[18] = second compound 0.00949 µM, first compound 10 µM
[19] = second compound 0.03 µM, first compound 0.0316 µM
[20] = second compound 0.03 µM, first compound 0.1 µM
[21] = second compound 0.03 µM, first compound 0.316 µM
[22] = second compound 0.03 µM, first compound 1 µM
[23] = second compound 0.03 µM, first compound 3.16 µM
[24] = second compound 0.03 µM, first compound 10 µM
[25] = second compound 0.0949 µM, first compound 0.0316 µM
[26] = second compound 0.0949 µM, first compound 0.1 µM
[27] = second compound 0.0949 µM, first compound 0.316 µM
[28] = second compound 0.0949 µM, first compound 1 µM
[29] = second compound 0.0949 µM, first compound 3.16 µM
[30] = second compound 0.0949 µM, first compound 10 µM
[31] = second compound 0.3 µM, first compound 0.0316 µM
[32] = second compound 0.3 µM, first compound 0.1 µM
[33] = second compound 0.3 µM, first compound 0.316 µM
[34] = second compound 0.3 µM, first compound 1 µM
[35] = second compound 0.3 µM, first compound 3.16 µM
[36] = second compound 0.3 µM, first compound 10 µM
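Further: spheroids exposed to compounds for seven days before readout.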
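Wherever viability, T/C is given: luminescence viability expressed relative to DMSO vehicle wells set as 100%.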

pIC50 (second compound 0.000949 µM): > 7.50
pIC50 (second compound 0.003 µM): > 7.50
pIC50 (second compound 0.00949 µM): > 7.50
pIC50 (second compound 0.03 µM): > 7.50
pIC50 (second compound 0.0949 µM): > 7.50
pIC50 (second compound 0.3 µM): > 7.50
Structure (SMILES): CC(=O)OC12COC1CC(O)C1(C)C(=O)C(O)C3=C(C)C(OC(=O)C(O)C(NC(=O)OC(C)(C)C)c4ccccc4)CC(O)(C(OC(=O)c4ccccc4)C21)C3(C)C (stereo unspecified) + CCn1c(-c2cccnc2C(C)OC)c2c3cc(ccc31)N1CCOC(CC(NC(=O)C(C(C)C)N(C)C(=O)C3(F)CCN(C(=O)C#CC(C)(C)N(C)C)CC3)C(=O)N3CCCC(N3)C(=O)OCC(C)(C)C2)C1
viability, T/C [1]: 13.4%
viability, T/C [2]: 13.8%
viability, T/C [3]: 13.9%
viability, T/C [4]: 10.7%
viability, T/C [5]: 13.2%
viability, T/C [6]: 17.7%
viability, T/C [7]: 15.3%
viability, T/C [8]: 12.7%
viability, T/C [9]: 12.2%
viability, T/C [10]: 14%
viability, T/C [11]: 14.4%
viability, T/C [12]: 16.7%
viability, T/C [13]: 15.4%
viability, T/C [14]: 14.8%
viability, T/C [15]: 12.1%
viability, T/C [16]: 11.9%
viability, T/C [17]: 15%
viability, T/C [18]: 17.6%
viability, T/C [19]: 14.9%
viability, T/C [20]: 12.4%
viability, T/C [21]: 11.1%
viability, T/C [22]: 10.3%
viability, T/C [23]: 14.1%
viability, T/C [24]: 16.8%
viability, T/C [25]: 11.2%
viability, T/C [26]: 10.4%
viability, T/C [27]: 8.86%
viability, T/C [28]: 9.58%
viability, T/C [29]: 13.1%
viability, T/C [30]: 16.4%
viability, T/C [31]: 11.5%
viability, T/C [32]: 9.61%
viability, T/C [33]: 7.21%
viability, T/C [34]: 9.28%
viability, T/C [35]: 11.9%
viability, T/C [36]: 16.4%

pIC50 (second compound 0.000949 µM): < 5.00
pIC50 (second compound 0.003 µM): < 5.00
pIC50 (second compound 0.00949 µM): < 5.00
pIC50 (second compound 0.03 µM): < 5.00
pIC50 (second compound 0.0949 µM): < 5.00
pIC50 (second compound 0.3 µM): < 5.00
Structure (SMILES): NC1c2ccccc2OC12CCN(c1cnc3c(N4CCCc5ncccc54)n[nH]c3n1)CC2 (stereo unspecified) + CCn1c(-c2cccnc2C(C)OC)c2c3cc(ccc31)N1CCOC(CC(NC(=O)C(C(C)C)N(C)C(=O)C3(F)CCN(C(=O)C#CC(C)(C)N(C)C)CC3)C(=O)N3CCCC(N3)C(=O)OCC(C)(C)C2)C1
viability, T/C [1]: 91.4%
viability, T/C [2]: 78.7%
viability, T/C [3]: 94.2%
viability, T/C [4]: 85.9%
viability, T/C [5]: 67.8%
viability, T/C [6]: 71.6%
viability, T/C [7]: 74.5%
viability, T/C [8]: 89.4%
viability, T/C [9]: 84.1%
viability, T/C [10]: 85.5%
viability, T/C [11]: 85.7%
viability, T/C [12]: 70.2%
viability, T/C [13]: 85%
viability, T/C [14]: 75.6%
viability, T/C [15]: 81.9%
viability, T/C [16]: 86.8%
viability, T/C [17]: 89.9%
viability, T/C [18]: 63.6%
viability, T/C [19]: 88.8%
viability, T/C [20]: 86.8%
viability, T/C [21]: 80.2%
viability, T/C [22]: 71.3%
viability, T/C [23]: 93.9%
viability, T/C [24]: 61.1%
viability, T/C [25]: 75%
viability, T/C [26]: 71.8%
viability, T/C [27]: 72.7%
viability, T/C [28]: 65.9%
viability, T/C [29]: 82.2%
viability, T/C [30]: 61.7%
viability, T/C [31]: 59.9%
viability, T/C [32]: 76.7%
viability, T/C [33]: 57%
viability, T/C [34]: 70.2%
viability, T/C [35]: 62.9%
viability, T/C [36]: 61.7%

pIC50 (second compound 0.000949 µM): 7.78
pIC50 (second compound 0.003 µM): 7.74
pIC50 (second compound 0.00949 µM): 7.81
pIC50 (second compound 0.03 µM): 7.77
pIC50 (second compound 0.0949 µM): 7.85
pIC50 (second compound 0.3 µM): 7.92
Structure (SMILES): Nc1ccn(C2OC(CO)C(O)C2(F)F)c(=O)n1 (stereo unspecified) + CCn1c(-c2cccnc2C(C)OC)c2c3cc(ccc31)N1CCOC(CC(NC(=O)C(C(C)C)N(C)C(=O)C3(F)CCN(C(=O)C#CC(C)(C)N(C)C)CC3)C(=O)N3CCCC(N3)C(=O)OCC(C)(C)C2)C1
viability, T/C (second compound 0.000949 µM, first compound 0.00316 µM): 76.9%
viability, T/C (second compound 0.000949 µM, first compound 0.01 µM): 79.7%
viability, T/C [1]: 15%
viability, T/C [2]: 7.41%
viability, T/C [3]: 10.3%
viability, T/C [4]: 9.82%
viability, T/C (second compound 0.003 µM, first compound 0.00316 µM): 91.1%
viability, T/C (second compound 0.003 µM, first compound 0.01 µM): 87.6%
viability, T/C [7]: 16.5%
viability, T/C [8]: 7.59%
viability, T/C [9]: 8.56%
viability, T/C [10]: 11.9%
viability, T/C (second compound 0.00949 µM, first compound 0.00316 µM): 87.6%
viability, T/C (second compound 0.00949 µM, first compound 0.01 µM): 72.9%
viability, T/C [13]: 13.3%
viability, T/C [14]: 9.05%
viability, T/C [15]: 9.37%
viability, T/C [16]: 12.1%
viability, T/C (second compound 0.03 µM, first compound 0.00316 µM): 91.4%
viability, T/C (second compound 0.03 µM, first compound 0.01 µM): 79.9%
viability, T/C [19]: 13.5%
viability, T/C [20]: 8.42%
viability, T/C [21]: 8.07%
viability, T/C [22]: 6.73%
viability, T/C (second compound 0.0949 µM, first compound 0.00316 µM): 87.8%
viability, T/C (second compound 0.0949 µM, first compound 0.01 µM): 66.9%
viability, T/C [25]: 9.91%
viability, T/C [26]: 4.39%
viability, T/C [27]: 7.38%
viability, T/C [28]: 6.23%
viability, T/C (second compound 0.3 µM, first compound 0.00316 µM): 71.7%
viability, T/C (second compound 0.3 µM, first compound 0.01 µM): 58%
viability, T/C [31]: 8.51%
viability, T/C [32]: 3.06%
viability, T/C [33]: 4.98%
viability, T/C [34]: 5.37%
